Like-named read-outs stand apart in the source and are kept apart here.
What was measured:
[1] = tested on: NCTC clone 929 (strain L) mouse areolar fibroblast cells (L929 cells); conditions: 0.5% DMSO
Experimental: Polymers and diacids were separately dissolved in dimethyl sulfoxide (DMSO) and diluted with cell media to reach concentrations of 0.10 and 0.05 mg/mL. These solutions were sterilized under UV at λ=254 nm for 900 s (Spectronics Corporation, Westbury, N.Y.) and then allocated to wells in a 96-well plate with 2000 cells/well. DMSO (0.5%) in cell media was used as negative control.
Cell viability was determined using CellTiter 96® Aqueous One Solution Cell Proliferation Assay. After 24 h, 48 h, and 72 h incubation with polymers or diacids, 20 μL of (3-(4,5-dimethylthiazol-2-yl)-5-(3-carboxymethoxyphenyl)-2-(4-sulfophenyl)-2H-tetrazolium) (MTS) reagent was added to each well and further incubated for 2 h at 37° C. The absorbance was then recorded with a microplate reader (Coulter, Boulevard Brea, Calif.) at 492 nm.

[2] = Structure determination of released drugs (1H-NMR of day 5 release media); format: physicochemical; conditions: released at day 5, 1H-NMR chemical shifts and integration
Experimental: Release media from day 5 (time point with the highest drug concentration) were freeze-dried for 24 h at −40° C. and 133×10^−3 mBar (LABCONO Freeze Dry System/Freezon 4.5). The resulting white powder was dissolved in acidic water (5 mL, pH˜1) and extracted with DCM (5×3 mL). DCM was evaporated under reduced pressure and the samples dried under vacuum for 2 days. Solutions of the free drugs (1 and 2) were prepared and treated as described above for the release media. ^1H-NMR spectroscopy was used to confirm the chemical structures of the released drugs.

| Compound | cell proliferation / viability ([1]; 0.05 mg/mL, 24, 48 and 72 h) | cell proliferation / viability ([1]; 0.10 mg/mL, 24, 48 and 72 h) | chemical structure of drug released from polymer versus free drug [2] |
| --- | --- | --- | --- |
| CC(C)Cc1ccc(C(C)C(=O)OC(C(=O)O)C(OC(=O)C(C)c2ccc(CC(C)C)cc2)C(=O)O)cc1 (stereo not drawn) [6a, Ibuprofen-tartaric diacid] | normal cell proliferation | normal cell proliferation | – |
| COc1ccc2cc(C(C)C(=O)OC(C(=O)O)C(OC(=O)C(C)c3ccc4cc(OC)ccc4c3)C(=O)O)ccc2c1 (stereo not drawn) [6b, Naproxen-Tartaric Diacid] | normal cell proliferation | normal cell proliferation | – |
| CC(C)Cc1ccc(C(C)C(=O)O)cc1 (stereo not drawn) [compound 1, ibuprofen] | – | – | preserved |
| COc1ccc2cc([C@H](C)C(=O)O)ccc2c1 [compound 2, naproxen] | – | – | preserved |

— patent US9144579B2, “Polyesters and methods of use thereof” (Rutgers, The State University of New Jersey, priority 2012, dated 2015)
